Test results as given in patent US7151105B2, “Inhibitors of Hepatitis C virus RNA-dependent RNA polymerase, and compositions and treatments using the same” (Agouron Pharmaceuticals, Inc., priority 2004, dated 2006).

Biological target: T1, Recombinant HCV polymerase (Hepatitis C virus genotype 1b, UniProt P26663)
T1 construct: Recombinant HCV polymerase was tested for its ability to perform primer/template-directed transcription
Assay: biochemical
Settings: inhibition of polymerase-directed transcription; 30 min at 30° C; 30 nM enzyme; cpm data in triplicate
In short: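 Primer/template-directed RNA synthesis by 2.5 pmol HCV polymerase on poly(rC)300/biotin-dG12 with 1 μM GTP plus α-32P-GTP, in pH 7.2 Tris buffer with 10 mM MgCl2, for 30 min at 30 °C. Products were filter-captured and counted, with 1% DMSO final. IC50 was fitted from triplicate cpm; percent inhibition was reported where IC50 was impractical.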

T1 sequence (P26663 2420-3010): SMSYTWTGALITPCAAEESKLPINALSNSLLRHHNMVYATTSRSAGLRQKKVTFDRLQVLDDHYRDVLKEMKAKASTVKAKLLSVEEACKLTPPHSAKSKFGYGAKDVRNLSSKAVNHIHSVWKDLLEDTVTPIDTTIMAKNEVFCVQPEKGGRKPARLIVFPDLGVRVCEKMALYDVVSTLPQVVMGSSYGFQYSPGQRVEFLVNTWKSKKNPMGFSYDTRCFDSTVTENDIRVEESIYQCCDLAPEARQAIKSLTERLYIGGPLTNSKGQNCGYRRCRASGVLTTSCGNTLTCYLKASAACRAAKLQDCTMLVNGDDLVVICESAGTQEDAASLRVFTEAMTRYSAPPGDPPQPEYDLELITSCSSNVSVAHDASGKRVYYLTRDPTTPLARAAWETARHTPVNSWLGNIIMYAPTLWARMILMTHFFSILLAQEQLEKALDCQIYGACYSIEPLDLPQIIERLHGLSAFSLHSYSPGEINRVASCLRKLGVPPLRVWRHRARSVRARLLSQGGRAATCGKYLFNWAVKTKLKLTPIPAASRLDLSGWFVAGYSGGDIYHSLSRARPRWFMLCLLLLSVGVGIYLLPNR

SMILES	IC50
Cc1cc(C)n2nc(CC3=C(O)CC(CCc4ccc(O)c(C(F)(F)F)c4)(C4CCCC4)OC3=O)nc2n1 (stereo not shown) [A(28), 6-Cyclopentyl-3-[(5,7-dimethyl[1,2,4]triazolo[1,5-a]pyrimidin-2-yl)methyl]-4-hydroxy-6-{2-[4-hydroxy-3-(trifluoromethyl)phenyl]ethyl}-5,6dihydro-2H-pyran-2-one]	2 nM
CCc1cc(CCC2(C3CCCC3)CC(O)=C(Cc3nc4nc(C)cc(C)n4n3)C(=O)O2)ccc1CO (racemic) [B(33), 6-Cyclopentyl-3-[(5,7-dimethyl[1,2,4]triazolo[1,5-a]pyrimidin-2-yl)methyl]-6-{2-[3-ethyl-4-(hydroxymethyl)phenyl]ethyl}-4-hydroxy-5,6-dihydro-2H-pyran-2-one]	28 nM
CCc1cc(CCC2(C3CCCC3)CC(O)=C(Cc3nc4nc(C)cc(C)n4n3)C(=O)O2)c2c(c1O)CCO2 (single isomer, unassigned; enantiomer 2) [A(13), Enantiomer 2 of 6-Cyclopentyl-3-[(5,7-dimethyl[1,2,4]triazolo[1,5-a]pyrimidin-2-yl)methyl]-6-[2-(5-ethyl-4-hydroxy-2,3-dihydro-1-benzofuran-7-yl)ethyl]-4-hydroxy-5,6dihydro-2H-pyran-2-one]	1 nM
CCn1nc(CC2=C(O)CC(CCc3ccc(C(C)(C)C#N)c(F)c3)(C3CCCC3)OC2=O)nc1C (stereo not shown) [Example B(50), 2-[4-(2-{2-Cyclopentyl-5-[(1-ethyl-5-methyl-1H-1,2,4-triazol-3-yl)methyl]-4-hydroxy-6-oxo-3,6dihydro-2H-pyran-2-yl}ethyl)-2-fluorophenyl]-2-methylpropanenitrile]	43 nM
Cn1nc(C(F)(F)F)c(CC2=C(O)CC(CCc3ccc(C(C)(C)C#N)c(F)c3)(C3CCCC3)OC2=O)c1Cl (stereo not shown) [A(97), 2-{4-[2-(5-{[5-Chloro-1-methyl-3-(trifluoromethyl)-1H-pyrazol-4-yl]methyl}-2-cyclopentyl-4-hydroxy-6-oxo-3,6-dihydro-2H-pyran-2-yl)ethyl]-2-fluorophenyl}-2-methylpropanenitrile]	11 nM
CCc1cc(CCC2(C3CCCC3)CC(O)=C(Cc3nc4nc(C)cc(C)n4n3)C(=O)O2)ccc1CNC(=O)OC(C)(C)C (stereo not shown) [A(126)]	6 nM
CCc1cc(CCC2(C3CCCC3)CC(O)=C(Cc3nc4nc(C)cc(C)n4n3)C(=O)O2)c(OCC2CCC2)cc1O (stereo not shown) [A(60), 6-{2-[2-(Cyclobutylmethoxy)5-ethyl-4-hydroxyphenyl]ethyl}-6-cyclopentyl-3-[(5,7-dimethyl[1,2,4]triazolo[1,5-a]pyrimidin-2-yl)methyl]-4-hydroxy-5,6-dihydro-2H-pyran-2-one]	3 nM
Cc1cc(C)n2nc(CC3=C(O)CC(CCc4cc(CC(F)(F)F)nc(CC(F)(F)F)c4)(C4CCCC4)OC3=O)nc2n1 (stereo not shown) [A(9), 6-{2-[2,6-Bis(2,2,2-trifluoroethyl)pyridin-4-yl]ethyl}-6-cyclopentyl-3-[(5,7-dimethyl[1,2,4]triazolo[1,5-a]pyrimidin-2-yl)methyl]-4-hydroxy-5,6-dihydro-2H-pyran-2-one]	5 nM
CCc1cc(CCC2(C3CCCC3)CC(O)=C(Cc3nc4nc(C)cc(C)n4n3)C(=O)O2)cc(C)n1 (stereo not shown) [A(35), 6-Cyclopentyl-3-[(5,7-dimethyl[1,2,4]triazolo[1,5-a]pyrimidin-2-yl)methyl]-6-[2-(2-ethyl-6-methylpyridin-4-yl)ethyl]-4-hydroxy-5,6-dihydro-2H-pyran-2-one]	9 nM
CCc1cc(CCC2(C3CCCC3)CC(O)=C(Cc3nc4nc(C)cc(C)n4n3)C(=O)O2)ccc1CNC(C)=O (single isomer, unassigned; enantiomer 2) [A(133), Enantiomer 2 of N-[4-(2-{2-cyclopentyl-5-[(5,7-dimethyl[1,2,4]triazolo[1,5-a]pyrimidin-2-yl)methyl]-4-hydroxy-6-oxo-3,6-dihydro-2H-pyran-2-ylethyl)-2-ethylbenzyl]acetamide]	5 nM
O=C1CC(=O)OC(CCc2ccc(S(=O)(=O)C(F)(F)F)cc2)(C2CCCC2)C1 (stereo not shown) [A(66), 6-Cyclopentyl-6-(2-{4[(trifluoromethyl)sulfonyl]phenyl}ethyl)dihydro-2H-pyran-2,4(3H)-dione]	31000 nM
CCc1cc(CCC2(C3CCCC3)CC(O)=C(Cc3nc4nc(C)cc(C)n4n3)C(=O)O2)ccc1CC#N (single isomer, unassigned; enantiomer 1) [A(116), Enantiomer 1 of [4-(2-{2-Cyclopentyl-5-[(5,7-dimethyl[1,2,4]triazolo[1,5-a]pyrimidin-2-yl)methyl]-4-hydroxy-6-oxo-3,6dihydro-2H-pyran-2-yl}ethyl)-2-ethylphenyl]acetonitrile]	5 nM
CCc1cc(CCC2(C3CCCC3)CC(O)=C(Cc3nc4ncc(C)cn4n3)C(=O)O2)ccc1-c1ncco1 (stereo not shown) [A(137), 6-Cyclopentyl-6-{2-[3-ethyl-4-(1,3-oxazol-2-yl)phenyl]ethyl}-4-hydroxy-2-[(6-methyl[1,2,4]triazolo[1,5-a]pyrimidin-2-yl)methyl]-5,6-dihydro-2H-pyran-2-one]	300 nM
CS(=O)(=O)c1ccc(CCC2(C3CCCC3)CC(=O)CC(=O)O2)cc1C(F)(F)F (stereo not shown) [B(3)]	6400 nM
CCOc1cnc(CC)cc1CCC1(C2CCCC2)CC(O)=C(Cc2nc3nc(C)cc(C)n3n2)C(=O)O1 (single isomer, unassigned) [A(51), 6-Cyclopentyl-3-[(5,7-dimethyl[1,2,4]triazolo[1,5-a]pyrimidin-2-yl)methyl]-6-[2-(5-ethoxy-2-ethylpyridin-4-yl)ethyl]-4-hydroxy-5,6-dihydro-2H-pyran-2-one]	3 nM
CCc1cc(CCC2(C3CCCC3)CC(O)=C(Cc3nc4nc(C)cc(C)n4n3)C(=O)O2)ccc1-c1ncco1 (single isomer, unassigned; enantiomer 1) [A(138), Enantiomer 1 of 6-Cyclopentyl-3-[(5,7-dimethyl[1,2,4]triazolo[1,5-a]pyrimidin-2-yl)methyl]-6-{2-[3-ethyl-4-(1,3-oxazol-2-yl)phenyl]ethyl}-4-hydroxy-5,6-dihydro-2H-pyran-2-one]	10 nM
Cc1cc(C)n2nc(CC3=C(O)CC(CCc4ccc([C@@H](C)NS(C)(=O)=O)cc4)(C4CCCC4)OC3=O)nc2n1 (stereo partly shown) [A(83)]	38 nM
CCn1cc(CC2=C(O)CC(CCc3ccc(C(C)(C)C#N)c(F)c3)(C3CCCC3)OC2=O)c(C)n1 (stereo not shown) [A(95), 2-[4-(2-{2-Cyclopentyl-5-[(1-ethyl-3-methyl-1H-pyrazol-4-yl)methyl]-4-hydroxy-6-oxo-3,6-dihydro-2H-pyran-2-yl}ethyl)-2-fluorophenyl]-2-methylpropanenitrile]	40 nM
CCc1cc(CCC2(C3CCCC3)CC(O)=C(Cc3nc4nc(C)cc(C)n4n3)C(=O)O2)ccc1CNS(C)(=O)=O (single isomer, unassigned; enantiomer 2) [A(130), Enantiomer 2 of N-[4-(2-{2-cyclopentyl-5-[(5,7-dimethyl[1,2,4]triazolo[1,5-a]pyrimidin-2-yl)methyl]-4-hydroxy-6-oxo-3,6-dihydro-2H-pyran-2-yl}ethyl)-2-ethylbenzyl]methanesulfonamide]	3 nM
CCc1cc(CCC2(C3CCCC3)CC(O)=C(Cc3nc4nc(C)cc(C)n4n3)C(=O)O2)ccc1OCCNC (stereo not shown) [A(72), 6-Cyclopentyl-3-[(5,7-dimethyl[1,2,4]triazolo[1,5-a]pyrimidin-2-yl)methyl]-6-(2-{3-ethyl-4-[2-(methylamino)ethoxy]phenyl}ethyl)-4-hydroxy-5,6-dihydro-2H-pyran-2-one]	8 nM
Cc1cc(C)n2nc(CC3=C(O)CC(CCc4ccc([C@@H](C)NC(=O)OC(C)(C)C)cc4)(C4CCCC4)OC3=O)nc2n1 (stereo partly drawn) [A(91), tert-Butyl(1R)-1-[4-(2-{2-cyclopentyl-5-[(5,7-dimethyl[1,2,4]triazolo[1,5-a]pyrimidin-2-yl)methyl]-4-hydroxy-6-oxo-3,6-dihydro-2H-pyran-2-yl}ethyl)phenyl]ethylcarbamate]	160 nM
COC(=O)c1ccc(CCC2(C3CCCC3)CC(=O)CC(=O)O2)cc1Cl (stereo not shown) [B(7)]	7000 nM
CCOc1cnc(CC)cc1CCC1(C2CCCC2)CC(O)=C(Cc2nc3nc(C)cc(C)n3n2)C(=O)O1 (single isomer, unassigned) [A(52), 6-cyclopentyl-3-[(5,7-dimethyl[1,2,4]triazolo[1,5-a]pyrimidin-2-yl)methyl]-6-[2-(5-ethoxy-2-ethylpyridin-4-yl)ethyl]-4-hydroxy-5,6-dihydro-2H-pyran-2-one]	3 nM
Cc1cc(C)n2nc(N(C)C3C(=O)CC(CCc4ccc(C(C)(C)C#N)c(Cl)c4)(C4CCCC4)OC3=O)nc2n1 (stereo not shown) [B(26), 2-[2-Chloro-4-(2-{2-cyclopentyl-5-[(5,7-dimethyl[1,2,4]triazolo[1,5-a]pyrimidin-2-yl)(methyl)amino]-4,6-dioxotetrahydro-2H-pyran-2-yl}ethyl)phenyl]-2-methylpropanenitrile]	18000 nM
CCCOc1cnc(CC)cc1CCC1(C2CCCC2)CC(O)=C(Cc2nc3nc(C)cc(C)n3n2)C(=O)O1 (stereo not shown) [A(42), 6-Cyclopentyl-3-[(5,7-dimethyl[1,2,4]triazolo[1,5-a]pyrimidin-2-yl)methyl]-6-[2-(2-ethyl-5propoxypyridin-4-yl)ethyl]-4-hydroxy-5,6-dihydro-2H-pyran-2-one]	4 nM
CCc1cc(CCC2(C3CCCC3)CC(=O)CC(=O)O2)ccc1OCCN(C)C(=O)OC(C)(C)C (stereo not shown) [A(67), tert-Butyl 2-{4-[2-(2-cyclopentyl-4,6-dioxotetrahydro-2H-pyran-2-yl)ethyl]-2-ethylphenoxy}ethyl(methyl)carbamate]	47000 nM
CCc1cc(CCC2(C3CCCC3)CC(=O)CC(=O)O2)ccc1CO (stereo not shown) [B(34), 6-Cyclopentyl-6-{2-[3-ethyl-4-(hydroxymethyl)phenyl]ethyl}dihydro-2H-pyran-2,4(3H)-dione]	1300 nM
CCc1ccc(CCCOC)c(CCC2(C3CCCC3)CC(O)=C(Cc3nc4nc(C)cc(C)n4n3)C(=O)O2)c1 (stereo not shown) [A(19), 6Cyclopentyl-3-[(5,7-dimethyl[1,2,4]triazolo[1,5-a]pyrimidin-2-yl)methyl]-6-{2-[5-ethyl-2-(3-methoxypropyl)phenyl]ethyl}-4-hydroxy-5,6dihydro-2H-pyran-2-one]	12 nM
